Reference: ChEMBL document CHEMBL6078688, “Discovery of Novel MyD88 Inhibitor A5S to Alleviate Acute Lung Injury with Favorable Drug-like Properties” (J Med Chem, 2024)
Activity calls are given as the source filed them. The rule behind the calls is not given here.

Experiments:
[1] = system: THP-1; test: Anti-inflammatory activity in LPS-induced human THP-1 cells assessed as inhibition of IL-6 production at 10 uM by ELISA relative to control; assay type: functional
[2] = system: J774.A1; test: Cytotoxicity against mouse J774.A1 cells at 10 uM by MTT assay; assay type: toxicity, cell-based; details: j774.a1, 10 µM
[3] = Cmax in Sprague-Dawley rat at 1 mg/kg,iv administration measured upto 24 hrs by LC-MS/MS analysis; assay type: ADME, organism-based; details: in vivo
[4] = AUC (0 to t) in Sprague-Dawley rat at 1 mg/kg,iv administration measured upto 24 hrs by LC-MS/MS analysis; assay type: ADME, organism-based; details: in vivo
[5] = AUC (0 to infinity) in Sprague-Dawley rat at 1 mg/kg,iv administration measured upto 24 hrs by LC-MS/MS analysis; assay type: ADME, organism-based; details: in vivo
[6] = Tmax in Sprague-Dawley rat at 1 mg/kg,iv administration measured upto 24 hrs by LC-MS/MS analysis; assay type: ADME, organism-based; details: in vivo
[7] = Half life in Sprague-Dawley rat at 1 mg/kg,iv administration measured upto 24 hrs by LC-MS/MS analysis; assay type: ADME, organism-based; details: in vivo
[8] = Cmax in Sprague-Dawley rat at 50 mg/kg,po administration measured upto 24 hrs by LC-MS/MS analysis; assay type: ADME, organism-based; details: in vivo
[9] = AUC (0 to t) in Sprague-Dawley rat at 50 mg/kg,po administration measured upto 24 hrs by LC-MS/MS analysis; assay type: ADME, organism-based; details: in vivo
[10] = Tmax in Sprague-Dawley rat at 50 mg/kg,po administration measured upto 24 hrs by LC-MS/MS analysis; assay type: ADME, organism-based; details: in vivo
[11] = Oral bioavailability in Sprague-Dawley rat at 50 mg/kg administration measured upto 24 hrs by LC-MS/MS analysis; assay type: ADME, organism-based; details: in vivo
[12] = Stability of compound in simulated gastric fluid measured upto 12 hrs; assay type: physicochemical; details: simulated gi fluid
[13] = Stability of compound in simulated intestinal fluid measured upto 12 hrs; assay type: physicochemical; details: simulated gi fluid
[14] = Stability of compound in enzyme free simulated gastric fluid measured upto 12 hrs; assay type: physicochemical; details: simulated gi fluid
[15] = Stability of compound in enzyme free simulated intestinal fluid measured upto 12 hrs; assay type: physicochemical; details: simulated gi fluid
[16] = Stability of compound in rat serum measured after 6 hrs; assay type: ADME, cell-free
[17] = system: Peritoneal macrophage; test: Antiinflammatory activity in LPS-induced mouse Peritoneal macrophage cells assessed as inhibition of IFN-beta mRNA level at 1.25 to 5 uM by RT-PCR analysis; assay type: functional, cell-based; details: dose 1.25-5 µM
[18] = system: Mus musculus; test: Antiinflammatory activity against LPS induced acute lung injury C57BL/6 mouse model assessed as reduction in histopathological change in lung at 20 mg/kg,po administrated with compound for 30 mins followed by LPS treatment and measured after 6 hrs by H and E staining based analysis; assay type: functional, organism-based; details: time 6.5 hrs
[19] = system: Mus musculus; test: Antiinflammatory activity against LPS induced acute lung injury C57BL/6 mouse model assessed as reduction in of leukocytes in alveolar region at 20 mg/kg,po administrated with compound for 30 mins followed by LPS treatment and measured after 6 hrs by immunohistochemical staining based analysis; assay type: functional, organism-based

Row | Structure (SMILES) | inhibition at 10 µM [1] [%] | Activity [2] | other results
1 | Cc1ccccc1OCC(O)CN1CCN(Cc2cc3ccccc3[nH]2)CC1 (stereo not drawn) | 75.4 | Non-toxic | 
2 | COc1ccc(OCC(O)CN2CCN(Cc3cc4ccccc4[nH]3)CC2)cc1 (stereo not drawn) | 69 | Non-toxic | 
3 | COc1ccc(-c2csc(NC(=O)CCN3CCN(Cc4cccc([N+](=O)[O-])c4)CC3)n2)cc1OC |  |  | Cmax [3]: 297 ng/mL; AUC(0-t) at 24 h [4]: 79.1 ng·h/mL; AUC(0-inf) [5]: 79.9 ng·h/mL; Tmax [6]: 4.8 min; half-life [7]: 4.8 min; Cmax [8]: 3.99 ng/mL; AUC(0-t) at 24 h [9]: 4.38 ng·h/mL; Tmax [10]: 15 min; bioavailability [11]: 0.13%; Stability [12]: Stable; Stability [13]: Stable; Stability [14]: Stable; Stability [15]: Stable; Stability [16]: Unstable
4 | CC(c1ccccc1)C(O)CN1CCN(CC(O)COc2ccc(F)cc2)CC1 (stereo not drawn) | 4.5 | Non-toxic | 
5 | COc1ccc(C(=O)/C=C/c2cccc(OC)c2OC)cc1 |  |  | Activity [17]: Active
6 | OC(COCc1ccccc1)CN1CCN(Cc2cc3ccccc3[nH]2)CC1 (stereo not drawn) | 72.7 | Non-toxic | 
7 | CC(c1ccccc1)C(O)CN1CCN(CC(O)COc2ccc(C(C)(C)C)cc2)CC1 (stereo not drawn) | 46.4 | Toxic | 
8 | OC(COc1ccc(F)cc1)CN1CCN(Cc2cc3ccccc3[nH]2)CC1 (stereo not drawn) | 76.3 | Non-toxic | 
9 | CC(c1ccccc1)C(O)CN1CCN(CC(O)COc2ccc(Cl)cc2)CC1 (stereo not drawn) | 14 | Non-toxic | 
10 | Cc1ccccc1OCC(O)CN1CCN(CC(O)C(C)c2ccccc2)CC1 (stereo not drawn) | 21.5 | Non-toxic | 
11 | CC(c1cccc(F)c1)C(O)CN1CCN(CC(O)COc2ccc(C(C)(C)C)cc2)CC1 (stereo not drawn) | 44.3 | Non-toxic | 
12 | COc1ccccc1OCC(O)CN1CCN(CC(O)C(C)c2cccc(F)c2)CC1 (stereo not drawn) | 52.8 | Non-toxic | 
13 | CC(c1cccc(F)c1)C(O)CN1CCN(CC(O)COCc2ccccc2)CC1 (stereo not drawn) | 30.4 | Non-toxic | 
14 | CC(c1ccccc1)C(O)CN1CCN(CC(O)COCc2ccccc2)CC1 (stereo not drawn) | 20 | Non-toxic | 
15 | OC(COc1ccccc1)CN1CCN(Cc2cc3ccccc3[nH]2)CC1 (stereo not drawn) | 74 | Non-toxic | 
16 | C[C@@H]1C[C@H]2[C@@H]3CCC4=CC(=O)C=C[C@]4(C)[C@@]3(F)[C@@H](O)C[C@]2(C)[C@@]1(O)C(=O)CO |  |  | Activity [18]: Active; Activity [19]: Active
